Experimental data taken from paper PMC10552892, “Ebselen oxide and derivatives are new allosteric HER2 inhibitors for HER2‐positive cancers” (Molecular Oncology, 2023).
Read-outs that look alike come from different tables or passages of the source.

Assays:
[1] = molecular target: T1, JMHER2 (peptide derived from the cytosolic juxtamembrane sequence of HER2) (Homo sapiens, UniProt P04626); assay: Surface plasmon resonance binding to immobilized HER2 juxtamembrane peptide; conditions: analyte 5 or 10 μM, 60 s injection
T1 construct: purchased Proteogenix
Method: Interaction was performed on a BIAcore T200 instrument BIAcore (Cytiva Life Sciences, Marlborough, MA, USA); GE Healthcare (Little Chalfont, UK). […] Ebselen or ebselen oxide was used as an analyte and injected at 5 or 10 μM at a flow rate of 25 μL·min^−1 for 60 s.

gD-HER2-WT = molecular target: T2, gD-HER2-WT (Homo sapiens, UniProt P04626); assay: Western blot of HBMECs overexpressing gD-HER2-WT; assay type: cell-based; conditions: 5 μM, 24 h
T2 construct: expressed in transfected cells; host or cells: HBMEC (human bone marrow endothelial cells)
T2 sequence (P04626 23-1255): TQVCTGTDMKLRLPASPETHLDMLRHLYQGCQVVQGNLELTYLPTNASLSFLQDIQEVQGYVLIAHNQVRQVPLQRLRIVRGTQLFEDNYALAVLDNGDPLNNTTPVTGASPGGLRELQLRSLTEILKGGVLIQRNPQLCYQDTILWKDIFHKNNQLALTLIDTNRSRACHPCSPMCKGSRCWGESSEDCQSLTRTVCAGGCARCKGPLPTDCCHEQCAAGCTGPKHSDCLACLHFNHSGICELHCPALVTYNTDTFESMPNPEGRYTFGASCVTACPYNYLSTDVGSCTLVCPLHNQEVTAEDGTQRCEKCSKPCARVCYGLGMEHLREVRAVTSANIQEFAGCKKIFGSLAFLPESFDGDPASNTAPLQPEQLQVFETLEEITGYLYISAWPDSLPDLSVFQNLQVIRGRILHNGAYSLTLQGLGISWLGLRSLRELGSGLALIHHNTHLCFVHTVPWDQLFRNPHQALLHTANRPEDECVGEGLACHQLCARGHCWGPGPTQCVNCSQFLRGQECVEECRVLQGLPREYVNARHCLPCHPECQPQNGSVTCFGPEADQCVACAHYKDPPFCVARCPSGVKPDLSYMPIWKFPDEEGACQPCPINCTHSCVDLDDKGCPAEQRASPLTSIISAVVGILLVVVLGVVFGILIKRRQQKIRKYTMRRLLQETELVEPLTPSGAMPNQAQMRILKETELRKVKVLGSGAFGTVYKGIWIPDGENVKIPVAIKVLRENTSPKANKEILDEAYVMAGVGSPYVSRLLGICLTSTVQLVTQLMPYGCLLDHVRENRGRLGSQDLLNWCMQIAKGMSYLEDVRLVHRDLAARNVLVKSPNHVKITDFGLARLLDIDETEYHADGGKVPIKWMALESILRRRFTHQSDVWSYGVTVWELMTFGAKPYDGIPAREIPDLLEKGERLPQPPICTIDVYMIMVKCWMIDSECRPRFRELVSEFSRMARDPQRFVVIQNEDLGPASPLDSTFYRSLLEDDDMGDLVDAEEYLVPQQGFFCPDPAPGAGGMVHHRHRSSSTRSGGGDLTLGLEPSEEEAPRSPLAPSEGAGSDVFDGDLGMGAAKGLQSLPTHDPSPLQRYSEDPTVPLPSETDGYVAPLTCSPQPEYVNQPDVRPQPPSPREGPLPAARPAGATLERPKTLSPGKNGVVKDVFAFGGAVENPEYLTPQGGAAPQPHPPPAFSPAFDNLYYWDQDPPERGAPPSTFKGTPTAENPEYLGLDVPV
Method: Human bone marrow endothelial cells (HBMECs) kindly provided by Dr. B. Weksler (Weill Medical College of Cornell University, NY) were cultured as described previously. The human breast cancer cell lines [SKBR3 (RRID:CVCL_0033), BT474 (RRID:CVCL_0179), and MDA‐MB‐231 (RRID:CVCL_0062)], the human gastric [NCI‐87 (RRID:CVCL_1603)] and ovarian [SKOV3 (RRID:CVCL_0532)] cancer cell lines were obtained from the American Type Culture Collection (Manassas, VA) and were maintained in DMEM containing 10% FBS. All cell lines were cultured under 5% CO2 at 37 °C. HBMECs were transfected using Amaxa Inc nucleofector system (Kit V and U015 program). FBS was decreased to 1% to analyze HER2 activation status and HER2‐dependent cell proliferation in SKOV3 as previously described. Periodic tests for Mycoplasma and authentication were performed using commercially available kits.

HER2 (pY1248) in SKBR3 = molecular target: T3, HER2 (pY1248) in SKBR3 (Homo sapiens, UniProt P04626); assay: HER2 activation (pY1248-HER2) in SKBR3 cells, western/dot blot; assay type: cell-based; set-up: Inhibition of HER2 activation / HER2 inhibition, %: concentration or dose not given beside the values
T3 construct: host or cells: SKBR3
T3 sequence (P04626 23-1255): as above

BT474 = assay: MTT proliferation assay, BT474; assay type: cell-based, human; conditions: 10 μM
Method: (§1) Fig. 2 Ebselen oxide inhibits HER2 activation, cell proliferation, and anchorage‐independent growth of HER2^+ breast cancer cells. […] Blot and quantification of a representative experiment are shown out of 4 (A), 5 (B), or 2 (C) independent experiments. (D–F) Proliferation curves of HER2‐positive (SKBR3, D or BT474, E) or HER2‐negative (MDA‐MB‐231, F) breast cancer cell lines treated with vehicle or 10 μM ebselen oxide assessed by MTT assay. […] (G–I) Anchorage‐independent growth of SKBR3 (G), BT474 (H), or MDA‐MB‐231 (I) cells treated with vehicle or 10 μM ebselen oxide. […] Scale bars are […].

SKBR3 = assay: Soft agar anchorage-independent growth, SKBR3; assay type: cell-based, human; conditions: 10 μM
Method: (§2) A bottom layer of 0.8% agarose in DMEM supplemented with 20% FBS and penicillin/streptomycin was added to 24‐well plates before seeding 25.10^3 cells per well in a 0.6% agarose top layer. Cells were treated with a vehicle or with 10 μM ebselen oxide or derivatives. Treatments were renewed 3 times a week. After 6 weeks, colonies were visualized with a phase‐contrast microscope and their number and size were quantified using IMAGEJ software.
as §1

MDA-MB-231 = assay: Soft agar anchorage-independent growth, MDA-MB-231; assay type: cell-based, human; conditions: 10 μM
Method: as §2, §1

NCI-N87 [2] = assay: Proliferation of NCI-N87 cells; assay type: cell-based, human; conditions: ebselen oxide 7–10 μM, AG1478 5 μM
Method: Fig. 3 Ebselen oxide inhibits HER2 activation and HER2‐dependent proliferation in gastric and ovarian HER2^+ cancer cells. (A) HER2‐positive NCI‐87 gastric cancer cells were treated with ebselen oxide (0–20 μM) for 24 h, lysed, and analyzed by western blot using anti‐pY1248‐HER2, HER2, and β‐tubulin antibodies. A representative western blot is shown out of 4 independent experiments. (B) HER2‐positive SKOV3 ovarian cancer cells were treated with ebselen oxide (0–10 μM) for 24 h, lysed, and analyzed by western blot using anti‐pY1248‐HER2, HER2, and ezrin antibodies. A western blot is shown (n = 1). (C, D) Proliferation curves of NCI‐N87 gastric (C) or SKOV3 ovarian (D) cancer cells treated with vehicle or 7–10 μM ebselen oxide measured by MTT assay. Data are mean ± SEM (n = 9–12) of three independent experiments.
Supplementary figure 4: NCI-N87 and SKOV3 cancer cell lines are addicted to the HER2 pathway
(A) NCI-N87 cells were treated (+) or not (-) with a non-specific HER2 inhibitor AG1478 (5 µM). Whole cell lysates were analyzed by western blot with pY1248 HER2, HER2 and pERK antibodies.
(B) SKOV3 cells were treated (+) or not (-) with a non-specific HER2 inhibitor AG1478 (5 µM). Whole cell lysates were analyzed by western blot with pY1248 HER2, HER2, pERK or beta-tubulin antibodies.
(C) Proliferation curves of NCI-N87 treated or not with AG1478 (5 µM). Data are mean ± sem (n=4-6). 2- […]

NCI-N87 [3] = assay: Incucyte proliferation, single agents and combinations, NCI-N87; assay type: cell-based; conditions: Homo sapiens, NCI-N87, 96 h; read-out: Reduction/inhibition of cell proliferation
Method: (A–C) Proliferation curves of HER2‐positive (SKBR3, A; BT474, B; NCI‐N87, C) cancer cell lines treated or not with ebselen oxide (10 μM), lapatinib (10–1000 nM), or combination of these agents, as indicated. Proliferation was assessed overtime by Incucyte during 4 days. Data are mean ± SD (n = 8–12) of a representative experiment out of 4 (A), 3 (B), or 2 (C) independent experiments. […] Proliferation was assessed by Incucyte during 4 days. […] Scale bars are […].

[4] = system: HBMECs overexpressing p95 HER2; assay: Proliferation of HBMECs overexpressing p95 HER2 (Incucyte); conditions: 5 μM, Incucyte 5 days
Method: 25.10^3 cells/96‐well transfected HBMECs or 9.10^3 cancer cells were seeded and monitored with an Incucyte S3 imaging system (Sartorius, Goettingen, Germany) using 10× objective every 2 h during 5 days. Confluency analyses were performed using the dedicated Incucyte analysis system.
(D–F) Proliferation was assessed by Incucyte during 5 days. Data are mean ± SEM of a representative experiment out of two independent experiments. Two‐way ANOVA followed by Bonferroni's multiple comparison test, ***P < 0.001, ****P < 0.0001.
(A-B) HBMECs transfected with empty vector (pRK5) or vectors encoding gD-HER2 WT, the truncated gD-
Proliferation was assessed by Incucyte during 5 days. Representative micrographs are shown (A).
Representative quantification of the proliferation (B) is shown where data are mean ± sem (n=8-12). Two-way
ANOVA followed byBonferroni’s multiple comparison test, *** P<0.001, **** P<0.0001. Scale bars are 100 µM.
vehicle, 5-10 µM Ebselen oxide or 5 µM AG1478. Proliferation was assessed by MTT assay during 3 days.
Data are mean ± sem (n=3). Two-way ANOVA followed by Bonferroni’s multiple comparison test, * P<0.05 **

O=C1c2ccccc2[Se](=O)N1c1ccccc1 (stereo not drawn) [Ebselen oxide, ebselen oxide]
Direct binding to JMHER2 (SPR) [1]: directly bind | Reduction of phosphorylation level of gD-HER2-WT (gD-HER2-WT; HBMEC): 40% | Reduction in the activation of ERK protein kinase (gD-HER2-WT; HBMEC gD-HER2-WT): 65% | Inhibition of HER2 activation (HER2 (pY1248) in SKBR3; SKBR3, 24 h): 66% | EC50 (HER2 (pY1248) in SKBR3; SKBR3, 24 h, read-out: EC50 (inhibition of HER2)): 23.9 µM | Inhibition of HER2 activation (HER2 (pY1248) in SKBR3; SKBR3, 48 h): 64% | Effect on HER2 activation, single agents and combination (HER2 (pY1248) in SKBR3; SKBR3, ebselen oxide 10 μM, lapatinib 10 nM): partially decreased | HER2 inhibition, % (HER2 (pY1248) in SKBR3; Table 1, HER2+ breast cancer cells (ebselen oxide value equals SKBR3 48 h)): 64.2% | EC50 (HER2 (pY1248) in SKBR3; Table 1, HER2+ breast cancer cells (ebselen oxide value equals SKBR3 48 h), read-out: EC50, μM (HER2 inhibition)): 26.9 µM | Reduction of proliferation rate (BT474): 55% | Reduction in the size of micro-colonies (SKBR3): more than 40% | Effect on development of micro-colonies (MDA-MB-231): no impact | Effect on proliferation (NCI-N87 [2]): reduced proliferation | inhibition at 10 µM (NCI-N87 [3]): 45% | Inhibition of cell proliferation induced by overexpression of p95 HER2 [4]: almost totally inhibited
